Laboratory results reported in US4252898A.
Values after ≈ are worked out from the molar mass of the structure shown.

Key:
[1] = system: NRRL 11459; test: Antibiotic sensitivity of the producing strain (sensitivity discs on seeded ISP #2 agar); format: cell-based, Streptomyces flocculus; settings: 30° C., 14 days; note: key: +: sensitive (zones of inhibition); -: resistat (no zones of inhibition)
Experimental: (§1) The cell wall sugars are determined using a modification of the procedure of M. Lechevalier, "Chemical Methods as Criteria for the Separation of Actinomycetes Into Genera", workshop sponsored by the subcommittee on Actionomycetes of the American Society of Microbology, Dr. Thoman G. Pridham, Convenor, held at the Institute of Microbology, Rutgurs University, New Brunswick, N.J., 1971. The isomer of diaminopimelic acid is determined using the method of B. Becker Appl. Microbiol., 11 421 ([…]). Amino acid analysis is determined with washed cell wall fragments. Melanoid pigments are determined using ISP #6 (peptone-yeast extract iron agar) and ISP #7 (tyrosine agar). Inhibitors are tested by incorporating varing concentrations of inhibitors into ISP #2 agar plates and streaking the culture on the surface. Starch hydrolysis is determined by testing for the presence of starch with iodine on ISP #4 agar plates. Temperature range, NaCl tolerance, pH range, and antibiotic sensitivity are done using ISP #2 agar medium. The range of temperatures are: 25°, 28°, 30°, 34°, 37°, 40°, 45°, 50°, 55° C. NaCl tolerance is measured by adding NaCl to the agar to equal: 0, 1, 2, 3, 4, 5, 6, 8, 10, 12% and incubating at 30° C. for 7 days. Antibiotic sensitivity is determined using sensitivity discs padded onto seeded agar plates of ISP #2 medium and incubating at 30° C. for 14 days.

[2] = system: NRRL 11459; test: Inhibitor sensitivity of the producing strain (inhibitor in ISP #2 agar); format: cell-based, Streptomyces flocculus; settings: NRRL 11459, ISP #2 agar plates
Experimental: as §1

[3] = system: Actinomyces israelii W855; test: Susceptibility of anaerobic bacterial isolates, agar dilution; format: cell-based; settings: 27 hours incubation
[4] = system: Clostridium perfringens 81; test: microbe, parasite or virus in culture; format: cell-based; settings: Clostridium perfringens, 81, 27 h
[5] = system: Clostridium septicum 1128; test: Susceptibility of anaerobic bacterial isolates, agar dilution; format: cell-based; settings: 27 hours incubation
[6] = system: Eubacterium aerofaciens 1235; test: as above; format: cell-based; settings: Collinsella aerofaciens, 27 hours incubation
[7] = system: Peptococcus asaccharolyticus 1302; test: as above; format: cell-based; settings: Peptoniphilus asaccharolyticus, 27 hours incubation
[8] = system: Peptococcus prevoti 1281; test: as above; format: cell-based; settings: 27 hours incubation
[9] = system: Peptostreptococcus anaerobius 1428; test: as above; format: cell-based; settings: 27 hours incubation
[10] = system: Peptostreptococcus intermedium 1264; test: as above; format: cell-based; settings: 27 hours incubation
[11] = system: Propionibacterium acnes 79; test: as above; format: cell-based; settings: Cutibacterium acnes, 27 hours incubation
[12] = system: Bacteroides fragilis spp. fragilis 111; test: as above; format: cell-based; settings: 27 hours incubation
[13] = system: Bacteroides fragilis ssp. fragilis 1877; test: as above; format: cell-based; settings: 27 hours incubation
[14] = system: Bacteroides fragilis ssp. fragilis 1936B; test: as above; format: cell-based; settings: 27 hours incubation
[15] = system: Bacteroides fragilis ssp. thetaiotaoimicron 1438; test: as above; format: cell-based; settings: 27 hours incubation
[16] = system: Bacteroides melaninogenicus 1856/28; test: as above; format: cell-based; settings: Prevotella intermedia, 27 hours incubation
[17] = system: Bacteroides melaninogenicus 2736; test: as above; format: cell-based; settings: 27 hours incubation
[18] = system: Bacteroides vulgatis 1211; test: as above; format: cell-based; settings: 27 hours incubation
[19] = system: Bacteroides corrodens 1874; test: as above; format: cell-based; settings: Eikenella corrodens, 27 hours incubation
[20] = system: Fusobacterium symbiosum 1470; test: as above; format: cell-based; settings: 27 hours incubation
[21] = system: Fusobacterium necrophorum 6054A; test: as above; format: cell-based; settings: 27 hours incubation
[22] = system: S. Aureus (3 strains); test: Disc-plate test; settings: Staphylococcus aureus, read-out: Disc-Plate Zone Sizes
[23] = system: S. pyogenes C203; test: Disc-plate test; settings: Streptococcus pyogenes, C203, read-out: Disc-Plate Zone Sizes
[24] = system: Group D Streptococcus; test: Disc-plate test; settings: read-out: Disc-Plate Zone Sizes
[25] = system: S. pneumoniae I; test: Disc-plate test; settings: Streptococcus pneumoniae, read-out: Disc-Plate Zone Sizes
[26] = system: E. coli Ec-14; test: Disc-plate test; settings: Escherichia coli, EC14, read-out: Disc-Plate Zone Sizes
[27] = system: P rettgeri PR-2; test: Disc-plate test; settings: read-out: Disc-Plate Zone Sizes
[28] = system: K. pneumoniae KL-14; test: Disc-plate test; settings: Klebsiella pneumoniae, KL14, read-out: Disc-Plate Zone Sizes
[29] = system: S. typhosa SA-12; test: Disc-plate test; settings: read-out: Disc-Plate Zone Sizes
[30] = system: S. aureus 3.55; test: Agar-dilution test; settings: Staphylococcus aureus
[31] = system: S. aureus 3074; test: Agar-dilution test; settings: Staphylococcus aureus
[32] = system: S. faecalis X-66; test: Agar-dilution test; settings: Enterococcus faecalis, X66
[33] = system: S. aureus 3055; test: Therapy in experimental mouse infections; settings: Staphylococcus aureus, 3055, in Mus musculus
[34] = system: S. pyogenes C203; test: Therapy in experimental mouse infections; settings: Streptococcus pyogenes
[35] = system: gram positive bacteria; test: Antibacterial activity in standard test procedures

C[C@@H]1[C@H](O)[C@@H](C)/C=C/C=C/CC/C=C/C=C/C=C/C=C/C(O[C@H]2O[C@H](C)[C@@H](O)[C@H](N)[C@@H]2O)CC2O[C@](O)(CC(O)C(O)CCC(O)CC(O)CC(O)CC(=O)O[C@H]1C)CC(O)C2C(=O)O (some centres unmarked) [Nystatin]
Antibiotic sensitivity ([1]; 100 units/disc): -

Cc1cc2nc3cc(C)c(N)cc3[n+](-c3ccccc3)c2cc1N.[Cl-] [Safranin]
Inhibitor sensitivity, MIC [2]: 10 µg/mL

CN(C)c1ccc(C(=C2C=CC(=[N+](C)C)C=C2)c2ccc(N(C)C)cc2)cc1 [Crystal Violet]
MIC ([2]; NRRL11459, read-out: Inhibitor sensitivity, MIC): 1 µg/mL

CCC[C@@H]1C[C@@H](C(=O)N[C@@H]([C@H]2O[C@H](SC)[C@H](O)[C@@H](O)[C@H]2O)[C@@H](C)O)N(C)C1 [Lincomycin]
Antibiotic sensitivity ([1]; 2 μg/disc): +

CN(C)[C@@H]1C(O)=C(C(N)=O)C(=O)[C@@]2(O)C(O)=C3C(=O)c4c(O)cccc4[C@@](C)(O)[C@H]3C[C@@H]12 [Tetracycline]
Antibiotic sensitivity ([1]; 30 μg/disc): +

CN[C@H](CC(C)C)C(=O)N[C@H]1C(=O)N[C@@H](CC(N)=O)C(=O)N[C@H]2C(=O)N[C@H]3C(=O)N[C@H](C(=O)N[C@H](C(=O)O)c4cc(O)cc(O)c4-c4cc3ccc4O)[C@H](O)c3ccc(c(Cl)c3)Oc3cc2cc(c3O[C@@H]2O[C@H](CO)[C@@H](O)[C@H](O)[C@H]2O[C@H]2C[C@](C)(N)[C@H](O)[C@H](C)O2)Oc2ccc(cc2Cl)[C@H]1O [Vancomycin]
Antibiotic sensitivity ([1]; 30 μg/disc): +

O=[Te]([O-])[O-].[K+].[K+] [Potassium Tellurite]
Inhibitor sensitivity, MIC [2]: > 500 µg/mL

CC(=O)OCC1=C(C(=O)O)N2C(=O)[C@@H](NC(=O)Cc3cccs3)[C@H]2SC1 [Keflin]
Antibiotic sensitivity ([1]; 30 μg/disc): -

CCC1OC(=O)CC(O)C(C)C(OC2OC(C)C(OC3CCC(O)C(C)O3)C(N(C)C)C2O)C(CC=O)CC(C)C(=O)C=CC2(C)OC2C1C (centres unmarked)
MIC [3]: 4 µg/mL (≈ 5.62 µM)
MIC [4]: 2 µg/mL (≈ 2.81 µM)
MIC [5]: 2 µg/mL (≈ 2.81 µM)
MIC [6]: 2 µg/mL (≈ 2.81 µM)
MIC [7]: 2 µg/mL (≈ 2.81 µM)
MIC [8]: 32 µg/mL (≈ 45 µM)
MIC [9]: 2 µg/mL (≈ 2.81 µM)
MIC [10]: 16 µg/mL (≈ 22.5 µM)
MIC [11]: 2 µg/mL (≈ 2.81 µM)
MIC [12]: 64 µg/mL (≈ 89.9 µM)
MIC [13]: 16 µg/mL (≈ 22.5 µM)
MIC [14]: 32 µg/mL (≈ 45 µM)
MIC [15]: 8 µg/mL (≈ 11.2 µM)
MIC [16]: 64 µg/mL (≈ 89.9 µM)
MIC [17]: 32 µg/mL (≈ 45 µM)
MIC [18]: 8 µg/mL (≈ 11.2 µM)
MIC [19]: 32 µg/mL (≈ 45 µM)
MIC [20]: 4 µg/mL (≈ 5.62 µM)
MIC [21]: 16 µg/mL (≈ 22.5 µM)
zone of inhibition at 100 µg/disc [22]: 24 mm
zone of inhibition at 100 µg/disc [23]: 20 mm
zone of inhibition at 100 µg/disc [24]: 20 mm
zone of inhibition at 100 µg/disc [25]: 35 mm
zone of inhibition at 100 µg/disc [26]: 10.2 mm
zone of inhibition at 100 µg/disc [27]: 8 mm
zone of inhibition at 100 µg/disc [28]: 0 mm
zone of inhibition at 100 µg/disc [29]: 9.9 mm
MIC [30]: 1 µg/mL (≈ 1.4 µM)
MIC [31]: 2 µg/mL (≈ 2.81 µM)
MIC [32]: 4 µg/mL (≈ 5.62 µM)
ED50 [33]: 5 mg/kg
ED50 [34]: 4.65 mg/kg
antibacterial activity [35]: exhibit antibacterial activity, particularly against gram positive bacteria
